The target in the first assay is T1, human GPR119 receptor (Homo sapiens, UniProt Q8TDV5, S329A/T327A).
T1 construct: N-terminal leader […]; expressed in transfected cells
T1 sequence (Q8TDV5 with tags, fused parts or gaps T327A/S329A): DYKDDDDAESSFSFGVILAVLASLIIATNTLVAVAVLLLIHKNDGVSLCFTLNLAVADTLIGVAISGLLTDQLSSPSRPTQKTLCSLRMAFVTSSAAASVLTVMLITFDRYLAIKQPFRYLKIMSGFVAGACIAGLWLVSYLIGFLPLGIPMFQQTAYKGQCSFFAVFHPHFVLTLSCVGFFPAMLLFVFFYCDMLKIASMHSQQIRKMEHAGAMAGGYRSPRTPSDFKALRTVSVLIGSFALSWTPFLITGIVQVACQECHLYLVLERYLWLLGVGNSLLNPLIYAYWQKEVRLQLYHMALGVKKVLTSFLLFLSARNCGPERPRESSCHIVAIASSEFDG
Kind of assay: cAMP assay (LANCE cAMP-384) in HEK293 cells stably expressing mutant human GPR119 receptor. The assay is classed as cell-based. To be noted: HEK293, 20 min; 10 μM; the 30th table; read-out: stimulation in % at 10 μM. In short, it runs like this: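 HEK293 cells stably expressing human GPR119 (T327A/S329A, modified N-terminus), 1000 cells/well, exposed to compound for 20 min at 37° C. cAMP quantified by LANCE TR-FRET against a standard curve; EC50 from 12 points, 30 μM to 100 pM, or % stimulation at 10 μM.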
Turning to `Cc1nnn(Cc2cnc(N3CCC(=NOC4CCN(C(=O)OC(C)C)CC4)CC3)c(F)c2)n1` [Example 54-5], the activation at 10 µM was found to be 75%.

The same assay, now with this note: HEK293, 20 min; at 10 μM; printed in EC50 column of the 36th table; read-out: stimulation in % at 10 μM.
Regarding `Cc1cc(CN2CCC(ON=C3CCN(c4ccc(S(C)(=O)=O)cc4F)CC3)CC2)oc1C` [Example 66-34], the activation at 10 µM came to 75%.
On to `CC(C)CN1CCC(ON=C2CCN(c3ccc(S(C)(=O)=O)cc3F)CC2)CC1` [Example 66-21], for which the activation at 10 µM was 64%.
For `CN(C)c1ccc(CN2CCC(ON=C3CCN(c4ccc(S(C)(=O)=O)cc4F)CC3)CC2)cc1` [Example 66-36], the activation at 10 µM turned out to be 83%.

Still in this assay, the particulars now being: HEK293, 20 min; single concentration 10 μM; given where no EC50 value could be determined; read-out: % stimulation at 10 μM.
For the molecule `CC(C)OC(=O)N1CCC(ON=C2CCN(c3cc(F)c(C(=N)N)cc3F)CC2)CC1` [Example 23-1, 4-[1-(4-Carbamimidoyl-2,5-difluoro-phenyl)-piperidin-4-ylideneaminooxy]-piperidine-1-carboxylic acid isopropyl ester], the activation at 10 µM was 3%.

Still in this assay, the particulars now being: cAMP accumulation, HEK293 cells stably expressing mutant human GPR119; read-out: EC50.
On to `CC(C)OC(=O)N1CCC(ON=C2CCN(c3ccnc(O)c3)CC2)CC1` [Example 2-4], for which the EC50 was > 10000 nM.
Same read-out and setting: as for `CC(C)OC(=O)N1CCC(ON=C2CCN(c3c(F)c(F)c(C(N)=O)c(F)c3F)CC2)CC1` [Example 2-57], the figure is 56 nM.
Still for that read-out and setting: to `CC(C)OC(=O)N1CCC(ON=C2CCN(c3cc(F)c(-c4cnc(N)nc4)cc3F)CC2)CC1` [Example 27-15] belongs 516 nM.
Same read-out and setting: as for `CC(C)OC(=O)N1CCC(ON=C2CCN(c3cc(F)c(-c4nccn4C)cc3F)CC2)CC1` [Example 27-16], the figure is 5550 nM.
Consider `CC(C)OC(=O)N1CCC(ON=C2CCN(c3cc(F)c(Cn4nccn4)cc3F)CC2)CC1` [Example 14-13], for which the EC50 was determined as 16 nM.
Same read-out and setting: to `CC(C)OC(=O)N1CCC(ON=C2CCN(c3cc(F)c(-n4cccn4)cc3F)CC2)CC1` [Example 22-3] belongs 62 nM; to `CC(C)OC(=O)N1CCC(ON=C2CCN(c3cc(F)c(CN4CCN(C(=O)OC(C)(C)C)CC4=O)cc3F)CC2)CC1` [Example 15-3], 408 nM; to `CC(C)OC(=O)N1CCC(ON=C2CCN(c3cc(F)c(-c4ccc[nH]4)cc3F)CC2)CC1` [Example 27-7], 436 nM.
On the same count and under the same terms, as for `CC(C)OC(=O)N1CCC(ON=C2CCN(c3cc(F)c(CN(C)C)cc3F)CC2)CC1` [Example 5-8], the figure is > 10000 nM; as for `CC(C)OC(=O)N1CCC(ON=C2CCN(c3cc(F)c(C(=O)NCCC(=O)O)cc3F)CC2)CC1` [Example 30-2], 1150 nM.
The same measure, in the same setting: to `CC(C)OC(=O)N1CCC(ON=C2CCN(c3cc(F)c(CNS(C)(=O)=O)cc3F)CC2)CC1` [Example 16-3] belongs 51 nM; to `CC(C)OC(=O)N1CCC(ON=C2CCN(c3ccccc3)CC2)CC1` [Example 32-1, 4-(1-Phenyl-piperidin-4-ylideneaminooxy)-piperidine-1-carboxylic acid isopropyl ester], > 10000 nM.
On to `CC(C)OC(=O)N1CCC(ON=C2CCN(c3cc(F)c(C4SCCC[S+]4[O-])cc3F)CC2)CC1` (mixture of isomers) [Example 21-1, 4-{1-[2,5-Difluoro-4-(1-oxo-1 lambda*4*-[1,3]dithian-2-yl)-phenyl]-piperidin-4-ylideneaminooxy}-piperidine-1-carboxylic acid isopropyl ester], for which the EC50 was 143 nM.
On the same count and under the same terms, as for `CC(C)OC(=O)N1CCC(ON=C2CCN(c3cc(F)c(C(=O)NCCCN)cc3F)CC2)CC1` [Example 31-3], the figure is 542 nM; as for `Cc1ncccc1N1CCC(=NOC2CCN(C(=O)OC(C)C)CC2)CC1` [Example 4-1, Isopropyl 4-(2′-Methyl-2,3,5,6-tetrahydro-[1,3′]bipyridinyl-4-ylideneaminooxy)piperidine-1-carboxylate], 4800 nM.

The same assay, now with this note: the 15th table; read-out: EC50.
Take `CC(C)OC(=O)N1CCC(ON=C2CCN(c3cc(F)c(C(=O)N4CCCCC4CN)cc3F)CC2)CC1` (centres unmarked) [Example 29-57]: the EC50 is 185 nM.
As for `CC(C)OC(=O)N1CCC(ON=C2CCN(c3cc(F)c(C(=O)N4CCC(CN5CCCC5)CC4)cc3F)CC2)CC1` [Example 29-48], the EC50 came out at 69 nM.
As to `COCCCNC(=O)c1cc(F)c(N2CCC(=NOC3CCN(C(=O)OC(C)C)CC3)CC2)cc1F` [Example 29-10], the EC50 came out at 28 nM.

The assay is the same for the next values; noted with them: the 19th table; unit inferred; read-out: EC 50.
With `CCc1cnc(N2CCC(ON=C3CCN(c4cc(F)c(C(=O)N5CCCC(CNC)C5)cc4F)CC3)CC2)nc1` (centres unmarked) [Example 29-129], the EC50 turned out to be 50 nM.
The same measure, in the same setting: to `CCc1cnc(N2CCC(ON=C3CCN(c4cc(F)c(C(=O)N5CCCCC5CNC)cc4F)CC3)CC2)nc1` (centres unmarked) [Example 29-136] belongs 120 nM.
In the case of `CCc1cnc(N2CCC(ON=C3CCN(c4cc(F)c(C(=O)NCCC5CCNCC5)cc4F)CC3)CC2)nc1` [Example 29-112], the EC50 amounted to 38 nM.
For the molecule `CCc1cnc(N2CCC(ON=C3CCN(c4cc(F)c(C(=O)NC5CNC5)cc4F)CC3)CC2)nc1` [Example 29-116], the EC50 was 322 nM.
For `CCc1cnc(N2CCC(ON=C3CCN(c4cc(F)c(C(=O)NCC5COCCN5)cc4F)CC3)CC2)nc1` (centres unmarked) [Example 29-87], the EC50 came out at 128 nM.
Still for that read-out and setting: to `CCc1cnc(N2CCC(ON=C3CCN(c4cc(F)c(C(=O)N5CCCC(CN)C5)cc4F)CC3)CC2)nc1` (centres unmarked) [Example 29-124] belongs 55 nM; to `CCc1cnc(N2CCC(ON=C3CCN(c4cc(F)c(C(=O)N5CC[C@H](N)C5)cc4F)CC3)CC2)nc1` [Example 29-119], 75 nM.

Still in this assay, the particulars now being: the 26th table; read-out: EC50.
Consider `CC(C)OC(=O)N1CCC(ON=C2CCN(c3ccc(S(C)(=O)=O)cn3)CC2)CC1` [Example 46-3], for which the EC50 stood at 614 nM.

Still in this assay, the particulars now being: the 27th table; read-out: EC50.
Regarding `[2H]C([2H])(O)c1cc(F)c(N2CCC(=NOC3CCN(C(=O)OC(C)C)CC3)CC2)cc1F` [Example 48-2], the EC50 amounted to 18 nM.

Still in this assay, the particulars now being: the 30th table; read-out: EC50.
In the case of `Cc1cnn(Cc2cnc(N3CCC(=NOC4CCN(C(=O)OC(C)C)CC4)CC3)c(F)c2)c1` [Example 54-1, 4-[3′-Fluoro-5′-(4-methyl-pyrazol-1-ylmethyl)-2,3,5,6-tetrahydro-[1,2]bipyridinyl-4-ylideneaminooxy]-piperidine-1-carboxylic acid isopropyl ester], the EC50 was 445 nM.

Still in this assay, the particulars now being: the 32nd table; read-out: EC50.
For `CS(=O)(=O)c1ccc(N2CCC(=NOC3CCN(c4ccc(C#N)cn4)CC3)CC2)c(F)c1` [Example 63-23], the EC50 was 1300 nM.
For the molecule `Cc1cccnc1N1CCC(ON=C2CCN(c3ccc(S(C)(=O)=O)cc3F)CC2)CC1` [Example 63-3], the EC50 was > 10000 nM.
Regarding `CS(=O)(=O)c1ccc(N2CCC(=NOC3CCN(c4cc(C(F)(F)F)ccn4)CC3)CC2)c(F)c1` [Example 63-10], the EC50 is > 10000 nM.
Still for that read-out and setting: to `CS(=O)(=O)c1ccc(N2CCC(=NOC3CCN(c4ncc(Br)cn4)CC3)CC2)c(F)c1` [Example 63-19] belongs 77 nM.

Still in this assay, the particulars now being: the 33rd table; read-out: EC50.
Take `CS(=O)(=O)c1ccc(N2CCC(=NOC3CCN(C(=O)OCCn4cccc4)CC3)CC2)c(F)c1` [Example 64-18]: the EC50 is 461 nM.
Consider `CS(=O)(=O)c1ccc(N2CCC(=NOC3CCN(C(=O)OC4CCC4)CC3)CC2)c(F)c1` [Example 64-1, 4-[1-(2-Fluoro-4-methanesulfonyl-phenyl)-piperidin-4-ylideneaminooxy]-piperidine-1-carboxylic acid cyclobutyl ester], for which the EC50 came to 81 nM.
As for `CS(=O)(=O)c1ccc(N2CCC(=NOC3CCN(C(=O)OC4CNC4)CC3)CC2)c(F)c1` [Example 64-33], the EC50 was > 10000 nM.

Staying with this assay, now noted: the 34th table, compounds 65-1 to 65-24; read-out: EC50.
Consider `CC(C)NC(=O)CN1CCC(ON=C2CCN(c3ccc(S(C)(=O)=O)cc3F)CC2)CC1` [Example 65-4], for which the EC50 is > 10000 nM.
For `CS(=O)(=O)c1ccc(N2CCC(=NOC3CCN(CC(=O)Oc4ccccc4)CC3)CC2)c(F)c1` [Example 65-6], the EC50 was 854 nM.
Take `CC(C)(C)COC(=O)N1CCC(ON=C2CCN(c3ccc(S(C)(=O)=O)cc3F)CC2)CC1` [Example 65-7]: the EC50 was determined as 57 nM.

The assay is the same for the next values; noted with them: the 36th table, compounds 66-1 to 66-51; read-out: EC50.
With `CC(C)c1ccc(CN2CCC(ON=C3CCN(c4ccc(S(C)(=O)=O)cc4F)CC3)CC2)cc1` [Example 66-32], the EC50 worked out at 332 nM.
Still for that read-out and setting: as for `Cc1ccc(CN2CCC(ON=C3CCN(c4ccc(S(C)(=O)=O)cc4F)CC3)CC2)c(F)c1` [Example 66-47], the figure is 909 nM.
On the same count and under the same terms, as for `CC(=O)Nc1ccc(CN2CCC(ON=C3CCN(c4ccc(S(C)(=O)=O)cc4F)CC3)CC2)cc1` [Example 66-39], the figure is > 10000 nM.

Staying with this assay, now noted: the 37th table, compounds 66-52 to 66-64; read-out: EC50.
Take `CCCc1ccc(CN2CCC(ON=C3CCN(c4cc(F)c(S(C)(=O)=O)cc4F)CC3)CC2)c(F)c1` [Example 66-59]: the EC50 turned out to be 53 nM.
Take `Cc1ccc(CN2CCC(ON=C3CCN(c4cc(F)c(S(C)(=O)=O)cc4F)CC3)CC2)cc1` [Example 66-54]: the EC50 came to 44 nM.

Staying with this assay, now noted: the 43rd table, compounds 75-1 to 75-38; read-out: EC50.
Take `CC(C)OC(=O)N1CCC(ON=C2CCN(c3cc(F)c(CC(=O)N4CCC(N)CC4)cc3F)CC2)CC1` [Example 75-12]: the EC50 is 92 nM.

The assay is the same for the next values; noted with them: the 44th table, compounds 77-1 to 77-14; read-out: EC50.
Turning to `CCc1cnc(N2CCC(ON=C3CCN(c4cc(F)c(CC(=O)N5CC[C@H](N)C5)cc4F)CC3)CC2)nc1` [Example 77-12], the EC50 was 19 nM.

The values are drawn from US8293729B2 (Boehringer Ingelheim International GmbH, priority 2009, dated 2012).
